Reference: US20080038335A1, “METHOD, FORMULATION, AND USE THEREOF FOR IMPROVED ORAL ABSORPTION OF PHARMACEUTICALS OR NUTRIENTS” (SHANGHAI TIANBO BIOTECHNOLOGY CO., LTD., priority 2005, published 2008)

Tests used:
[1] = oral, Dong et al. 2003; cited from earlier work
[2] = Solubility in 90% ethanol (Chinese Pharmacopeia method); format: physicochemical; conditions: 25° C.±2° C., observed at 30 minutes
Method: The solution is observed at 30 minutes, and it is defined as complete dissolution when no solute particles or droplets are noticed.
• 1. Dissolve ginsenoside Rg3 in ethanol. • 100 mg test ginsenoside Rg3 was added to 100 ml of 90% ethanol at 25° C.±2° C., and forcefully shaken for 30 seconds every 5 minutes. […] Preparation of Rg3 solution in ethanol. • The ginsenoside Rg3-ethanol solution is prepared according to Rg3's solubility, and this solution will be used to determine the percentage of polyoxyethylene hydrogenated castor oil in formulation. • 3. Establishment of artificial gastric and intestinal environments. • The artificial gastric and intestinal fluids are prepared in accordance to experimental example 2. • 4. Determination of the proportion of protectant polyoxyethylene hydrogenated castor oil (Cremophor RH40) in ginsenoside Rg3-ethanol solution. • Polyoxyethylene hydrogenated castor oil (Cremophor RH40) at different proportions, from 5%-90%, is added to 100 ml ginsenoside Rg3-ethanol solution, and then the mixture is subjected to artificial gastric or intestinal fluids for stability test. […] The highest proportion as determined, i.e., 50% or 175 mg is adopted for drug preparation. • 5. […]
• 1. […] The highest proportion as determined, i.e., 40% or 150 mg is adopted for drug preparation. • 5. […]

| SMILES | absorption rate from the GI tract [1] [%] | Amount completely dissolved in 100 ml 90% ethanol [2] [mg] |
| --- | --- | --- |
| CC(C)=CCC[C@](C)(O[C@@H]1O[C@H](CO[C@@H]2O[C@H](CO)[C@@H](O)[C@H](O)[C@H]2O)[C@@H](O)[C@H](O)[C@H]1O)[C@H]1CC[C@]2(C)[C@@H]1[C@H](O)C[C@@H]1[C@@]3(C)CC[C@H](O[C@@H]4O[C@H](CO)[C@@H](O)[C@H](O)[C@H]4O[C@@H]4O[C@H](CO)[C@@H](O)[C@H](O)[C@H]4O)C(C)(C)[C@@H]3CC[C@]12C [Rb1] | 1 | – |
| CC(C)=CCC[C@](C)(O[C@@H]1O[C@H](CO)[C@@H](O)[C@H](O)[C@H]1O)[C@H]1CC[C@]2(C)[C@@H]1[C@H](O)C[C@@H]1[C@@]3(C)CC[C@H](O)C(C)(C)[C@@H]3[C@@H](O[C@@H]3O[C@H](CO)[C@@H](O)[C@H](O)[C@H]3O)C[C@]12C [Rg1, ginsenoside Rg1] | 1.9 | – |
| CC(C)=CCC[C@](C)(O)[C@H]1CC[C@]2(C)[C@@H]1[C@H](O)C[C@@H]1[C@@]3(C)CC[C@H](O[C@@H]4O[C@H](CO)[C@@H](O)[C@H](O)[C@H]4O[C@@H]4O[C@H](CO)[C@@H](O)[C@H](O)[C@H]4O)C(C)(C)[C@@H]3CC[C@]12C [Rg3, ginsenoside Rg3] | – | 100 |
| CC(C)=CCC[C@](C)(O)[C@H]1CC[C@]2(C)[C@@H]1[C@H](O)C[C@@H]1[C@@]3(C)CC[C@H](O[C@@H]4O[C@H](CO)[C@@H](O)[C@H](O)[C@H]4O)C(C)(C)[C@@H]3CC[C@]12C [Rh2, ginsenoside Rh2] | 3.4 | – |
| CC(C)=CCC[C@@](C)(O)[C@H]1CC[C@]2(C)[C@@H]1[C@H](O)C[C@@H]1[C@@]3(C)CC[C@H](O)C(C)(C)[C@@H]3CC[C@]12C [aPPD, protopanoxadiol sapogenin aPPD] | – | 40 |
